Results as given in paper PMC5733478, “A Non-imaging High Throughput Approach to Chemical Library Screening at the Unmodified Adenosine-A3 Receptor in Living Cells” (Frontiers in Pharmacology, 2017).

Target: T1, human A3AR (Homo sapiens, UniProt P0DMS8)
T1 construct: expressed in transfected cells
T1 sequence (P0DMS8 1-318): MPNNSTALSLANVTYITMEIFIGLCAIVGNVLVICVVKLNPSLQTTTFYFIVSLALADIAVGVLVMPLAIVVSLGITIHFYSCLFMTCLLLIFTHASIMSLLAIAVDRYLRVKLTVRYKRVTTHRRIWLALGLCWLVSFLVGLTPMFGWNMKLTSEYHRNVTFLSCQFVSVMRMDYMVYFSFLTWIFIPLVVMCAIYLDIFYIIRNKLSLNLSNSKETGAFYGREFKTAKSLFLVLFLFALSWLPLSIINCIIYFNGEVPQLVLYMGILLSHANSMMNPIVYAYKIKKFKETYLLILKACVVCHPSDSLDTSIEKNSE
Assay: LOPAC library primary screen: single concentration (10 μM) inhibition of 25 nM CA200645 binding, PHERAstar FS
Conditions: not given

Molecule | % 25 nM CA200645 binding [%]
C=CCn1c(=O)c2c(nc(-c3ccc(S(=O)(=O)O)cc3)n2C)n(C)c1=O | 97.5 ± 9.3
Cl.NC1(C(=O)O)CCCCC1 | 108.3 ± 1.1
Cl.NC1(C(=O)O)CC1 | 88.3 ± 14.5
Clc1ccc(C(c2ccccc2Cl)C(Cl)Cl)cc1 (centres unmarked) | 87.8 ± 23.1
COc1ccccc1N1CCNCC1.Cl | 114.8 ± 8.3
COc1ccc2c(c1)c(CC(=O)O)c(C)n2Cc1ccc(Cl)cc1 | 97.1 ± 10.6
CC1CN(S(=O)(=O)c2cccc3cnccc23)CCN1.Cl.Cl (centres unmarked) | 95.4 ± 14.7
COc1ccc2c(c1)c(CC(=O)O)c(C)n2C(=O)c1ccccc1 | 59.0 ± 9.2
C[N+]1(C)CCN(c2ccccc2)CC1.[I-] | 102.6 ± 13.3
CCCc1c(-c2ccc(O)cc2)nn(-c2ccc(O)cc2)c1-c1ccc(O)cc1 | 35.7 ± 9.6
Cl.NCC(O)C1CCCCCCC1 (centres unmarked) | 94.5 ± 6.6
CSc1nc(N)c2ncn([C@@H]3O[C@H](COP(=O)([O-])OP(=O)([O-])OP(=O)([O-])[O-])[C@@H](O)[C@H]3O)c2n1.[Na+].[Na+].[Na+].[Na+] | 99.0 ± 0.7
Br.Br.N=C(N)SCCN | 91.5 ± 12.4
CSc1nc(N)c2ncn([C@@H]3O[C@H](COP(=O)([O-])OP(=O)([O-])[O-])[C@@H](O)[C@H]3O)c2n1.O.[Na+].[Na+].[Na+] | 100.3 ± 5.3
NC(=O)COc1c(F)cc(SCCNS(=O)(=O)c2ccccc2)cc1F | 109.8 ± 13.1
CN1C2CCC1CC(OC(=O)c1c[nH]c3ccccc13)C2.Cl (centres unmarked) | 109.6 ± 9.2
C[N+]1(C)C2CCC1CC(OC(=O)c1c[nH]c3ccccc13)C2.[I-] (centres unmarked) | 95.6 ± 4.9
Cl.Fc1ccc(C(OCCCc2c[nH]cn2)c2ccc(F)cc2)cc1 | 99.1 ± 1.1
Cl.N=C(N)c1ccc(CS(=O)(=O)F)cc1 | 98.9 ± 8.1
O=C(O)c1cc([N+](=O)[O-])ccc1NCCCc1ccccc1 | 120.8 ± 13.5
Cc1ccc(S(=O)(=O)O)cc1.NC[C@H]1O[C@@H](n2cnc3c(N)ncnc32)[C@H](O)[C@@H]1O | 85.5 ± 26.7
COc1ccc2[nH]c3c(c2c1)CCNC3 | 93.4 ± 1.1
Cc1cccc(C#Cc2ccccc2)n1.Cl | 95.8 ± 6.2
Oc1cc(-c2ccccc2)nc2nc(Cl)ccc12 | 77.8 ± 8.8
Nc1ncnc2c1c(-c1ccc(Oc3ccccc3)cc1)cn2C1CCCC1 | 58.8 ± 13.2
COCc1nc2c([nH]1)c(=O)n(C)c(=O)n2CC(C)C | 99.2 ± 10.1

Molecule | % 25 nM CA200645 binding [%]
Cl.Nc1c2c(nc3ccccc13)CCCC2 | 100.2 ± 15.6
C[C@H]1CCC/C=C/[C@@H]2C[C@H](O)C[C@H]2[C@H](O)/C=C/C(=O)O1 | 87.5 ± 5.2
C[N+](C)(C)CCOP(=O)([O-])OP(=O)([O-])OC[C@H]1O[C@@H](n2ccc(N)nc2=O)[C@H](O)[C@@H]1O.[Na+] | 102.5 ± 15.7
Cl.Nc1ccn([C@@H]2O[C@H](CO)[C@@H](O)[C@@H]2O)c(=O)n1 | 98.1 ± 3.7
Br.COc1ccc2c(c1)[C@]13CCCC[C@@H]1[C@H](C2)N(C)CC3.O | 102.0 ± 12.4
NC(N)=Nc1ccc2[nH]c3c(c2c1)C[C@@]1(O)[C@H]2Cc4ccc(O)c5c4[C@@]1(CCN2CC1CC1)[C@H]3O5.O=C(O)C(F)(F)F.O=C(O)C(F)(F)F | 93.9 ± 7.0
Cl.O[Si](CCCN1CCCCC1)(c1ccc(F)cc1)C1CCCCC1 (centres unmarked) | 104.8 ± 7.7
C[C@@H](N)Cc1cnc[nH]1.Cl.Cl | 98.7 ± 8.4
COC(=O)[C@@H](N)Cc1ccc(O)c(O)c1.Cl | 98.6 ± 13.3
COc1cccc(C(=O)NCCN2CCN(c3ccc(Cl)cc3)CC2)c1 | 94.3 ± 6.0
CNCCc1c[nH]c2ccc(O)cc12.O=C(O)C(=O)O | 111.6 ± 33.8
Cc1ccc(S(=O)(=O)N[C@@H](Cc2ccccc2)C(=O)CCl)cc1 | 102.0 ± 13.7
COC(=O)[C@@H](N)CCCN=C(N)N[N+](=O)[O-].Cl | 109.0 ± 16.7
CCCCCCN(CCCCCC)C(=O)Cc1c(-c2ccc(F)cc2)[nH]c2ccccc12 | 88.5 ± 10.2
CC(Cc1ccc(O)c(O)c1)C(C)Cc1ccc(O)c(O)c1 (centres unmarked) | 79.3 ± 28.3
Br.CCCN1CCc2cc(O)cc3c2[C@H]1Cc1ccc(O)c(O)c1-3 | 89.0 ± 14.4
Br.CN1CCc2cc(O)cc3c2[C@H]1Cc1ccc(O)c(O)c1-3 | 83.0 ± 14.1
N[C@H](C(=O)O)[C@H]1C[C@@H]1C(=O)O | 107.7 ± 15.6
C[C@H](O)[C@H](O)[C@H]1CNc2nc(N)[nH]c(=O)c2N1.Cl | 101.6 ± 17.7
CC[C@@H]1Cc2cc(O)ccc2C2=C1c1ccc(O)cc1C[C@H]2CC | 85.9 ± 6.0
Nc1ncnc2c1ncn2[C@@H]1O[C@H](COP(=O)(O)CP(=O)(O)OP(=O)([O-])[O-])[C@H](O)C1O.[Li+].[Li+] (some centres unmarked) | 102.3 ± 5.3
CCCCCCC(C(C)O)n1cnc2c(N)ncnc21.Cl (centres unmarked) | 80.7 ± 17.0
17alpha-hydroxyprogesterone | 104.8 ± 10.6
10058-F4 | 75.9 ± 8.5
Cl.NCCC[C@](N)(C(=O)O)C(F)F (racemic) | 103.2 ± 12.1
COC(=O)C(N)Cc1ccc(Cl)cc1.Cl (racemic) | 95.7 ± 6.7

Molecule | % 25 nM CA200645 binding [%]
CC(N)c1cccc(Cl)c1Cl.Cl (racemic) | 100.4 ± 9.9
CC(N)(Cc1ccc(O)c(O)c1)C(=O)O (racemic) | 86.8 ± 7.1
CCCCCCCCCC(=O)NC(CN1CCOCC1)[C@H](O)c1ccccc1.Cl (mixture of isomers) | 98.6 ± 11.0
COC(=O)C(C)(N)Cc1ccc(O)cc1.Cl (racemic) | 108.9 ± 8.2
NC(Cc1cc(O)c(O)cc1O)C(=O)O (racemic) [6-Hydroxy-DL-DOPA] | 69.7 ± 9.9
NC(CP(=O)(O)O)C(=O)O (racemic) [(±)-2-Amino-3-phosphonopropionic acid] | 96.0 ± 3.9
NC(CCP(=O)(O)O)C(=O)O (racemic) [(±)-2-Amino-4-phosphonobutyric acid] | 99.9 ± 8.9
NC(CCCCCP(=O)(O)O)C(=O)O (racemic) [(±)-2-Amino-7-phosphonoheptanoic acid] | 52.2 ± 10.8
Br.Oc1cc2c(c(Cl)c1O)CCNCC2c1ccccc1 (racemic) [(±)-6-Chloro-PB hydrobromide] | 99.3 ± 4.1
Br.CCCN(CCC)C1CCc2ccc(O)cc2C1 (racemic) [(±)-7-Hydroxy-DPAT hydrobromide] | 98.0 ± 1.6
Br.CCCN(CCC)C1CCc2cccc(O)c2C1 (racemic) [(±)-8-Hydroxy-DPAT hydrobromide] | 98.2 ± 1.8
Br.Cc1o[nH]c(=O)c1CC(N)C(=O)O (racemic) [(±)-AMPA hydrobromide] | 96.2 ± 10.6
CC1CCN=C(N)S1.Cl (racemic) [(±)-AMT hydrochloride] | 100.6 ± 12.5
NCC(CC(=O)O)c1ccc(Cl)cc1 (racemic) [(±)-Baclofen] | 99.6 ± 6.9
COC(=O)C1=C(C)NC(C)=C([N+](=O)[O-])C1c1ccccc1C(F)(F)F (racemic) [(±)-Bay K 8644] | 95.3 ± 3.4
CN(C)CCC(c1ccc(Br)cc1)c1ccccn1.O=C(O)/C=C\C(=O)O (racemic) [(±)-Brompheniramine maleate] | 101.5 ± 4.3
CC(C)(C)NCC(O)COc1cccc2[nH]c(=O)[nH]c12.Cl (racemic) [(±)-CGP-12177A hydrochloride] | 114.1 ± 10.3
O=C(O)C1CN(CCCP(=O)(O)O)CCN1 (racemic) [(±)-CPP] | 97.2 ± 1.5
CN(C)CCC(c1ccc(Cl)cc1)c1ccccn1.O=C(O)/C=C\C(=O)O (racemic) [(±)-Chlorpheniramine maleate] | 99.2 ± 9.9
CNCC(O)c1ccc(O)c(O)c1.Cl (racemic) [(±)-Epinephrine hydrochloride] | 95.7 ± 7.0
NC1CCN(O)C1=O (racemic) [(±)-HA-966] | 96.6 ± 6.4
N[C@H](C(=O)O)c1cc(O)no1 (racemic) [(±)-Ibotenic acid] | 93.1 ± 9.6
CC(C)NCC(O)c1ccc(O)c(O)c1.Cl (racemic) [(±)-Isoproterenol hydrochloride] | 95.3 ± 10.4
COc1ccc(CCN(C)CCCC(C#N)(c2cc(OC)c(OC)c(OC)c2)C(C)C)cc1OC.Cl (racemic) [(±)-Methoxyverapamil hydrochloride] | 97.3 ± 10.6
COCCc1ccc(OCC(O)CNC(C)C)cc1.O=C(O)C(O)C(O)C(=O)O (racemic) [(±)-Metoprolol (+)-tartrate] | 83.3 ± 9.2
C[C@@H]1O[C@H](C[N+](C)(C)C)C[C@H]1O.[Cl-] (racemic) [(±)-Muscarine chloride] | 94.8 ± 15.8

Same assay, conditions: % of control wells (1% DMSO and 25 nM CA200645); compounds at 10 µM; whole live cells expressing the A3AR; mean ± SD, three experiments in duplicate

Molecule | % 25 nM CA200645 binding [%]
CCOC(=O)[C@]12CC1/C(=N\O)c1ccccc1O2 (mixture of isomers) [CPCCOEt] | 88.3 ± 3.9

Same assay, conditions: compounds tested at 10 µM; % of control wells (1% DMSO and 25 nM CA200645); whole live cells expressing the A3AR; mean ± SD, three experiments in duplicate

Molecule | % 25 nM CA200645 binding [%]
NC(CCCP(=O)(O)O)C(=O)O (racemic) [(±)-2-Amino-5-phosphonopentanoic acid] | 90.8 ± 6.2
